Columns and labels:
[1] = test system: Tetranychus urticae; assay: Development of Tetranychus urticae on exposed tomato plants; type: in vivo; details: T. urticae, 21 days after release
Protocol: It was also studied whether the defensive activation induced by exposure to (Z)-3-hexenyl propanoate could influence the development of two highly important phytophages in tomato cultivation, the red spider, T. urticae, and the lepidoptera T. absoluta. The individuals used in these experiments came from the captive breeding of these species that are kept in the IVIA described above. The exposure time of the plant to the volatile was tested on both phytophages in two different ways, one where the plant was only exposed to the volatile for 24 hours and then the herbivore to be assayed was immediately released, and the other where the volatile was permanently exposed throughout the experiment.
For this purpose, two climatic chambers were used under the same environmental conditions [25±2° C., 65±5% HR and 14:10 h (L:D) photoperiod], wherein, to avoid interference between the volatiles, one was assigned to the (Z)-3-hexenyl propanoate treatments and one to the control treatment. […]
Eight tomato plants (Lycopersicon esculentum cv. Moneymaker) were introduced in each cage. […] Naked eye sampling was carried out seven, 14, and 21 days after the release of T. urticae, where the total number of T. urticae females in each plant was counted.

[2] = test system: PR1 (marker gene for the SA signaling pathway); assay: Field (commercial greenhouse) assay, transcriptional response of PR1 in tomato plants; type: in vivo, tomato cv Raf; details: LD dispenser every 20 m2, at 30 and 60 days
Protocol: To know the behavior of the dispensers loaded with (Z)-3-hexenyl propionate under real cultivation conditions, four commercial greenhouses for tomato cv Raf located in Xilxes (Castellón province), with a history of problems with T. absoluta contamination at the end of winter, were selected. An experimental design of randomized blocks was carried out where each greenhouse was considered a block with two treatments per block and 4 repetitions per treatment. […]
Twenty plants randomly chosen by repetition were sampled weekly for 11 weeks, beginning 30 Jan. […] First, the number of leaflets infested by T. absoluta per plant was counted. Then the number of N. tenuis (adults and nymphs) throughout the apical third of each plant (leaves, flowers and shoots) was counted. Following the methodology described above, 6 samples were taken from the apical part of each plant per repetition, and these samples were immediately introduced into liquid nitrogen to quantify the expression of the PR1 and PIN2 genes (described in Example 1 and Example 2). The expression of these genes was quantified one day before, 4, and 8 weeks after hanging the dispensers in the greenhouses.

CC/C=C\CCOC(=O)CC [(Z)-3-hexenyl propanoate]
Reduction in the number of mites per plant with respect to the control ([1]; plant exposed for 24 h before release): 50.3±6.3% | Reduction in the number of mites per plant with respect to the control ([1]; plant exposed throughout the entire experiment): 83.9±5.0% | Expression of PR1 compared to plants in the control zone [2]: significantly higher
